Our source for the Kd values is patent US20120028265A1, “METHODS OF USING RET NANOSENSORS” (priority 2007, published 2012).

Molecules are shown by their SMILES.

Assay [1] deals with FLII12Pglu700μ-δ6 glucose nanosensor (Escherichia coli, UniProt P0AEE5). In kind it is binding. Conditions: read-out: Kd, affinity constant of nanosensor; used for theoretical saturation curve.
Method: (A) Theoretical curve of glucose-induced FRET changes of FLII12Pglu700μ-δ6. […] Light gray shaded area indicates 10-90% confidence range of FLII12Pglu700μ-δ6 detection range, the dark gray shaded area indicates 20-80% confidence range. (B) Effect of the variation in ratio data (SD) on the determination of glucose concentrations. […] The calculated glucose concentration from the average of ratio data was set as 100%. In vivo glucose concentration was calculated from the equation: [gluc]vivo=Kd×(Δr−1)/(ΔRmax−Δr) with [G], glucose concentration; Kd, affinity constant of nanosenor; Δr, partial ratio change; ΔRmax, maximum ratio change. (C) Examples of in vivo glucose concentration dynamics upon cell perfusion and nanosenor range of FLII12Pglu700μ-δ6. The glucose concentration dynamics within the nanosenor range report differences in 1) accumulation rate, 2) elimination rate, 3) steady-state level, and 4) delay in nanosenor response. Gray lines indicate real in vivo glucose concentration dynamics and black lines indicate the nanosenor saturation of FLII12Pglu700μ-δ6. (D) In vivo glucose concentration-time plot (black line) with ratio ±SD and confidence range (grey lines) of FLII12Pglu700μ-δ6.
In assay [2] the target is glucose nanosensor (not named in Example 9). The note with it: read-out: affinity constant for glucose.
Method: The confidence range for calculation of intracellular glucose concentrations is determined by the quality of the recorded sensor response data. As a rule of thumb, data with standard deviations off ±2.5% and ±5% can be interpreted between 10% and 90% and between 20% and 80% saturation, respectively. Monitoring the sensor response in presence of alternating analyte concentrations yields information about transport and metabolism in the targeted subcellular compartment from (1) the intracellular accumulation rate upon addition of the analyte, which is composed of influx rate minus metabolism and export rates, (2) the elimination rate when the analyte is removed, which is composed of export plus metabolism minus influx, (3) the steady state level of the sensor response, in which influx equals metabolism and efflux, and (4) the time delay before a sensor response can be recorded, which represents differences in influx rates or metabolism.
Assay [3] concerns E. coli L-arabinose binding protein AraF, unmodified. Conditions: tryptophan fluorescence spectroscopy, read-out: affinity (Kd); cited from earlier work.
In assay [4] the target is FLIParaF.Ec-200n, FRET nanosensor: E. coli K12 AraF (L-arabinose binding protein) fused between eCFP and Venus (Escherichia coli, UniProt P02924). The experiment in a line: In vitro FRET titration of purified arabinose nanosensor. The note with it: D/L-arabinose; apparent; purified sensor, 20 mM MOPS pH 7.0, Venus/eCFP emission ratio 528/485 nm, single-site isotherm. An excerpt:
The araF gene (EMBL: K00420) was amplified from Escherichia coli K12 genomic DNA using homologous primers, resulting in a PCR product that consisted of araF without stopcodon flanked by phage lambda attB recombination sites. The araF gene was fused between eCFP and Venus coding sequences of pGW1 through pDONR (Invitrogen) using […] (Invitrogen), respectively. The final construct was denoted pGW1araF.Ec and the correct sequence of the araF gene was verified by DNA sequencing (Sequetech). The gene product encoded on pGW1araF.Ec was denoted FLIParaF.Ec-200n.
The eCFP emission used for the ratio calculation was determined at 485 nm. Protein was diluted to give Venus/eYFP readouts of 20,000 to 30,000 at a manual gain between 70-75. By using the change in FRET ratio upon binding of ligand, affinity constants (Kd) were determined by fitting the titration curves to a single-site-binding isotherm:
R=Rapo+(Rsat−Rapo)·(n·[L])/(Kd+[L])
with [L], ligand concentration; n, number of equal binding sites; R, ratio; Rapo, ratio in the absence of ligand; and Rsat, ratio at saturation with ligand. Three independent protein preparations were analyzed and each protein preparation was analyzed in triplicate.

FLII12Pglu700μ-δ6 glucose nanosensor, sequence (P0AEE5 24-332 limits assumed): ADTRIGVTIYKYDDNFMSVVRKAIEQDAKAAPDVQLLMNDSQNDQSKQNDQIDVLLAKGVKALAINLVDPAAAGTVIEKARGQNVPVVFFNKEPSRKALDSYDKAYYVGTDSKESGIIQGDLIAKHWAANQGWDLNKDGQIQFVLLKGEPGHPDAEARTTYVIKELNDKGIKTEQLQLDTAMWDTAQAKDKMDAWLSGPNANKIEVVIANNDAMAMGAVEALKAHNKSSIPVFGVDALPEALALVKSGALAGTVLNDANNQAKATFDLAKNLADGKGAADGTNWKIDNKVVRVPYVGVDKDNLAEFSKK
FLIParaF.Ec-200n, FRET nanosensor: E. coli K12 AraF (L-arabinose binding protein) fused between eCFP and Venus, sequence (P02924 24-329): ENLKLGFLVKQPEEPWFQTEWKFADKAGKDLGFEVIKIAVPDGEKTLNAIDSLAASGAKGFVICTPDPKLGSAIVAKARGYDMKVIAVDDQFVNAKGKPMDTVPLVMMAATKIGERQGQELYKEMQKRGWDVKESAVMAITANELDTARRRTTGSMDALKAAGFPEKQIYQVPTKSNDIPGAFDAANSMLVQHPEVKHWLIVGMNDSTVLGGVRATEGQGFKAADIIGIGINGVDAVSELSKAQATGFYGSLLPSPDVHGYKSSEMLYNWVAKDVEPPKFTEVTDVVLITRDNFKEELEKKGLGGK

`OC[C@H]1OC(O)[C@H](O)[C@@H](O)[C@@H]1O` (stereo partly shown) [glucose]: the Kd in assay [1] was 660 µM; in assay [2], 600 µM.

Regarding `OC1OC[C@H](O)[C@H](O)[C@H]1O` (stereo partly drawn) [L-arabinose], in assay [3], the Kd is 98 ± 33 nM.

Consider `OC1COC(O)C(O)C1O` (racemic) [D/L-arabinose], for which, in assay [4], the Kd turned out to be 230 ± 18 nM.
